From patent publication EP1285971B1, “Methods for the phenotypic and genotypic assessment of the drug sensitivity of HIV integrase variants” (Tibotec Pharmaceuticals Ltd., priority 2001, dated 2003)
Like-named read-outs stand apart in the source and are kept apart here.

What was measured:
Assay in all cases: microbe, parasite or virus in culture
Conditions in all cases: for fold change: fold change in EC50
[1] = test system: patient_146514; format: cell-based, HIV
Experimental: (§1) The integrase encoding sequence was amplified from either wildtype HIV-1 (IIIB) or NL4.3 virus, or HXB2D site-directed mutant viruses containing mutations in integrase (such as T66I, S153Y, M154I, or combinations thereof) (Hazuda et al., Science 2000, 287, 646-650), or patient samples. Starting from RNA, extracted from virus supernatant or plasma using the QIAamp® viral RNA extraction kit (Qiagen), cDNA was synthesized by reverse transcription (Expand TM reverse transcriptase, 30 min at 42°C) with the primer 3'EGINT10 (SEQ ID NO 11), followed by a nested PCR. The outer PCR was performed with the primers 5'EGINT1 (SEQ ID NO 1) and 3'EGINT10 (SEQ ID NO 11) (ΔR-IN-vif construct) or 5'EGINT3 (SEQ ID NO 4) and 3'EGINT10 (SEQ ID NO 11) (ΔIN construct) (Expand™ High Fidelity PCR system), and 5 µl of the outer product was used for an inner PCR with primers 5'EGINT2 (SEQ ID NO 3) and 3'EGINT11 (SEQ ID NO 12) (ΔR-IN-vif construct) or 5'EGINT4 (SEQ ID NO 5) and 3'EGINT6 (SEQ ID NO 7) (ΔIN construct). In a second protocol the outer primers were identical as described above, the inner primers are 5'EGINT5 (SEQ ID NO 6) and 3'EGINT6 (SEQ ID NO 7). The amplicons can be used for genotyping and phenotyping. Cycling conditions for both PCRs are denaturation for 3 min at 95°C, followed by 30 cycles of 1 min 90°C, 30 sec 55°C, and 2 min 72°C. A final extension was performed at 72°C for 10 min. For recombination, PCR products are purified using the QiaQuick® 96 PCR BioRobot kit (Qiagen), according to the manufacturer's protocol. If the protocol starts from DNA containing the HIV material such as proviral DNA, the reverse transcriptase step is not needed. The nested approach is also not needed when starting from proviral DNA. The obtained amplicons were sequenced using the primers: In_seq1F (SEQ ID NO 17), In_seq2F (SEQ ID NO 18), In_seq3F (SEQ ID NO 19), IN_seq1R (SEQ ID NO 20), IN_seq2R (SEQ ID NO 21), and IN_seq3R (SEQ ID NO 22).
(§2) A ΔR-IN-vif or ΔIN deletion construct was generated by site-directed mutagenesis on the template pSV40HXB2D with the primers MUT-IN1 (SEQ ID NO 13) and MUT-IN2 (ΔR-IN-vif construct) (SEQ ID NO 14) or MUT-IN3 (SEQ ID NO 15) and MUT-IN4 (SEQ ID NO 16) (ΔIN construct) (protocol Site-directed mutagenesis kit, Stratagene). After DpnI digestion for removal of the methylated template DNA, the construct was digested with SmaI and ligated to circulize the plasmid. The plasmid was transformed into competent cells such as Top10 cells, and colonies were screened for the presence of the deletion construct. The IN-deletion construct was checked by sequence analysis with primers 5'EGINT1 (SEQ ID NO 1) or […] and 3'EGINT10 (SEQ ID NO 11) or 3'EGINT11 (SEQ ID NO 12). For use in recombination experiments, large-scale plasmid DNA preparations were linearized by SmaI digestion and recombined with PCR amplified integrase genes from wild type, mutant, or patient viruses. The plasmid containing the integrase deletion (ΔIN) has been deposited pSV40HXB2D-ΔIN. The sequence of said plasmid is 14377 nucleotides long. The ΔR-IN-vif deletion construct is 13975 nucleotides long. The pSV40HXB2D-ΔIN was deposited at the Belgian Coordinated Collections of Micro-Organisms located at the Universiteit Gent - Laboratorium voor Moleculaire Biologie on August 5, 2002 and the accession number is LMBP 4574.
(§3) Recombinant virus was produced by co-transfection by electroporation of the SmaI-linearized IN-deletion construct and the integrase amplicon into MT4 cells or MT4 cells equipped with an LTR driven reporter gene construct. Production of recombinant virus was evaluated by scoring the cytopathogenic effect (CPE) that is induced by HIV-infection of MT4 cells or by the LTR-driven reporter signal induced by HIV infection in MT4 reporter cells.

[2] = test system: NL 4-3; format: cell-based, HIV-1
Experimental: as §1, §2, §3

[3] = test system: WT III B; format: cell-based, HIV-1
Experimental: as §1, §2, §3

[4] = AVE 2, patient_146514, primer set 3
[5] = Human immunodeficiency virus 1, AVE 2, patient_146514, primer set 3
[6] = Human immunodeficiency virus 1, AVE 1, NL 4-3, primer set 3
[7] = Human immunodeficiency virus 1, NL43, AVE 4, NL4-3, primer set 4
[8] = Human immunodeficiency virus 1, AVE 5, WT III B, primer set 4
[9] = Human immunodeficiency virus 1, AVE 3, WT III B, primer set 3

Row | SMILES | fold change [1, 4] | EC50 [1, 5] [nM] | fold change ([2]; AVE 1, NL 4-3, primer set 3) | fold change ([2]; AVE 4, NL4-3, primer set 4) | EC50 [2, 6] [nM] | EC50 [2, 7] [nM] | fold change ([3]; AVE 5, WT III B, primer set 4) | EC50 [3, 8] [nM] | fold change ([3]; AVE 3, WT III B, primer set 3) | EC50 [3, 9] [nM] | EC50 ([1]; AVE 2, patient_146514, primer set 3, read-out: EC 50) [nM] | EC50 ([2]; AVE 1, NL 4-3, primer set 3, read-out: EC 50) [nM] | EC50 ([2]; AVE 4, NL4-3, primer set 4, read-out: EC 50) [nM] | EC50 ([3]; AVE 3, WT III B, primer set 3, read-out: EC 50) [nM] | EC50 ([3]; AVE 5, WT III B, primer set 4, read-out: EC 50) [nM] | EC50 [1, 4] [nM] | EC50 ([2]; AVE 1, NL 4-3, primer set 3) [nM] | EC50 ([2]; AVE 4, NL4-3, primer set 4) [nM] | EC50 ([3]; AVE 3, WT III B, primer set 3) [nM] | EC50 ([3]; AVE 5, WT III B, primer set 4) [nM]
1 | Cc1cn([C@H]2C[C@H](N=[N+]=[N-])[C@@H](CO)O2)c(=O)[nH]c1=O [AZT, Zidovudine] | 0,9 | 150 | 0,9 | 1,1 | 143 | 182 | 0,9 | 144 | – | – | – | – | – | – | – | – | – | – | – | –
2 | c1cc(CN2CCCNCCNCCCNCC2)ccc1CN1CCCNCCNCCCNCC1 [AMD3100] | 1,0 | 54.9 | 0,9 | 1,1 | 50.6 | 63 | 0,8 | 41.7 | 0,8 | 44.2 | – | – | – | – | – | – | – | – | – | –
3 | O=C(O)C1=CC(=C(c2ccc(O)c(C(=O)O)c2)c2ccc(O)c(C(=O)O)c2)C=CC1=O [ATA] | 1,0 | – | 0,9 | 1,2 | – | – | 0,4 | – | 0,4 | – | 1970 | 1960 | 2510 | 730 | 861 | – | – | – | – | –
4 | CC(C)(C)NC(=O)[C@@H]1CN(Cc2cccnc2)CCN1C[C@@H](O)C[C@@H](Cc1ccccc1)C(=O)N[C@H]1c2ccccc2C[C@H]1O [IDV, Indinavir] | 1,3 | 56.4 | 0,7 | 1,2 | 31.5 | 50.7 | 0,9 | 41.3 | 0,4 | 18.4 | – | – | – | – | – | – | – | – | – | –
5 | Nc1ccn([C@@H]2CS[C@H](CO)O2)c(=O)n1 [Compound 3TC, Lamivudine] | 2,5 | 3490 | 0,6 | 2,0 | 820 | 2730 | 1,2 | 1690 | 0,3 | 384 | – | – | – | – | – | – | – | – | – | –
6 | Cc1cc(C#N)cc(C)c1Oc1nc(Nc2ccc(C#N)cc2)nc(N)c1Br [Compound 2, 4-[[6-amino-5-bromo-2-[(4-cyanophenyl)amino]-4-pyrimidinyl]oxy]-3,5-dimethyl-Benzonitrile] | 1,3 | – | 0,8 | 0,9 | – | – | 0,9 | – | 0,9 | – | – | – | – | – | – | 3.9 | 2.6 | 2.8 | 2.8 | 2.9
